Assay results as given in paper PMC5471521, “Novel selective β1-adrenoceptor antagonists for concomitant cardiovascular and respiratory disease” (The FASEB Journal, 2017).

What was measured:
5-HT2B = 5-HT2B (Homo sapiens, UniProt P41595); assay: Cerep receptor radioligand-binding assay; settings: concentration-response, Cheng-Prusoff
Method: […]; Ki (inhibition constant) was calculated by using the Cheng-Prusoff equation from the mean of duplicate determinations in cell-based receptor radioligand-binding assays. Cerep in vitro pharmacology profiling service was used (see the Supplemental Data for a list of the assays used).

CYP2A6 = molecular target: T1, CYP2A6 (Homo sapiens, UniProt P11509); assay: P450 in vitro clearance, recombinant Supersomes; type: in vitro ADME; settings: 2 μM, hydrochloride salts used
T1 construct: purchased BD Biosciences
Method: (§1) NDD-713.HCl and -825.HCl (2 μM) and cytochrome P450 (P450) reference substrates (see Supplemental Data for full details) were incubated (37°C) with selected recombinant human P450 isoforms (CYP1A2, CYP2A6, CYP2B6, CYP2C8, CYP2C9, CYP2C19, CYP2D6 CYP2E1, and CYP3A4) in heterologously expressed P450 Supersomes (BD Biosciences) that were suspended in […] Tris-HCl buffer (pH 7.4; for CYP2C9) or 100 mM phosphate buffer (pH 7.4; for the other isoforms) at final P450 concentrations of 85 pmol/ml. Reactions were initiated by additions of an NADPH-regenerating system and quenched at time points over 60 min (reference probes) or 120 min (test compounds) by acetonitrile. Quenched samples were centrifuged and supernatants were collected. NDD-713, -825, and probe metabolites were determined by UPLC-MS relative to calibration standards prepared in quenched matrix, and %substrate that remained was calculated relative to the initial sample concentration. The %substrate that remained vs. time was fitted to exponential decay functions to determine the pseudo first-order rate constant (k/min) for substrate depletion. These were normalized to P450 concentrations (pmol/ml) to obtain in vitro CLint values: CLint, in vitro (μl/min/pmol P450) = [k (min^−1)/P450 concentration […]] × 1000. Studies were carried out by CDCO.

CYP2D6 = CYP2D6 (Homo sapiens, UniProt P10635); assay: P450 in vitro clearance, recombinant Supersomes; type: in vitro ADME; settings: 2 μM, hydrochloride salts used; one value printed for CYP2D6 and CYP2E1
Method: as §1

CYP2E1 = molecular target: T2, CYP2E1 (Homo sapiens, UniProt P05181); assay: P450 in vitro clearance, recombinant Supersomes; type: in vitro ADME; settings: 2 μM, hydrochloride salts used; one value printed for CYP2D6 and CYP2E1
T2 construct: purchased BD Biosciences
Method: as §1

Sequence of 5-HT2B (P41595 whole entry): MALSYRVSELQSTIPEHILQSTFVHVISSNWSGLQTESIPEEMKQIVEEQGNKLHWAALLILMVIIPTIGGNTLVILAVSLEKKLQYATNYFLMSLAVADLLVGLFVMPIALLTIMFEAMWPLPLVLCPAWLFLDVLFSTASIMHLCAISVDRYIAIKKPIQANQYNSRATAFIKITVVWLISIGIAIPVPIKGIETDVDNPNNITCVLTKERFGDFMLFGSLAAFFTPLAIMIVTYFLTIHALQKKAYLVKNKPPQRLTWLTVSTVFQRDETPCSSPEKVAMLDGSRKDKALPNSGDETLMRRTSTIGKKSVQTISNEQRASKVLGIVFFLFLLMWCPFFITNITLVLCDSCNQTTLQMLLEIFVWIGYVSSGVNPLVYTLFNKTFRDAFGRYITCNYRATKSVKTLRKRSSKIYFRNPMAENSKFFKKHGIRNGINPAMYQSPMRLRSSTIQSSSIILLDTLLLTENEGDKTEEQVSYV
T2 sequence (P05181 whole entry): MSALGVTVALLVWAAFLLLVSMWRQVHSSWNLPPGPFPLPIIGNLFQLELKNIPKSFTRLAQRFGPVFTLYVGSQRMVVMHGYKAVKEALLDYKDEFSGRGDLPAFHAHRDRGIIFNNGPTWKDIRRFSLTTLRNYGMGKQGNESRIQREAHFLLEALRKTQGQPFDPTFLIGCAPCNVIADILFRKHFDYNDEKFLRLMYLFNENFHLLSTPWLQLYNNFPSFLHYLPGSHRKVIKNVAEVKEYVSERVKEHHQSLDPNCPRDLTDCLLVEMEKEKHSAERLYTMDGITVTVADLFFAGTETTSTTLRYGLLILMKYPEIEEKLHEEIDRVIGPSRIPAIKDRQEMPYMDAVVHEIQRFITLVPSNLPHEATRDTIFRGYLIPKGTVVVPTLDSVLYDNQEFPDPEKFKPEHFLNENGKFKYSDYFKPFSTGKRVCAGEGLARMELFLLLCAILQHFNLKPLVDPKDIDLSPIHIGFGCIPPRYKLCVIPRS
T1 sequence (P11509 whole entry): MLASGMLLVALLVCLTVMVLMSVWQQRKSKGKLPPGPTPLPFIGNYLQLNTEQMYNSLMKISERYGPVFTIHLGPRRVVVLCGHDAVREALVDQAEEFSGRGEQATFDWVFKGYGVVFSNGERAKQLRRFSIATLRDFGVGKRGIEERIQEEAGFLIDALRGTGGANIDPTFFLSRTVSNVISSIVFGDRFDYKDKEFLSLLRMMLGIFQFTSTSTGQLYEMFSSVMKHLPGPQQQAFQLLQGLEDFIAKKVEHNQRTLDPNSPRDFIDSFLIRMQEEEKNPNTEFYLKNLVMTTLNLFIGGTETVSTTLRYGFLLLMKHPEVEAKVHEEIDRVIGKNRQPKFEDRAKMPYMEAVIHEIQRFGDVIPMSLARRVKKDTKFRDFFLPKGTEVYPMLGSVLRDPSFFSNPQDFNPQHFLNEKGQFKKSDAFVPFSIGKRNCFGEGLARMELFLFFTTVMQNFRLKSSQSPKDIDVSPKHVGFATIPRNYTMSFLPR
Sequence of CYP2D6 (P10635 whole entry): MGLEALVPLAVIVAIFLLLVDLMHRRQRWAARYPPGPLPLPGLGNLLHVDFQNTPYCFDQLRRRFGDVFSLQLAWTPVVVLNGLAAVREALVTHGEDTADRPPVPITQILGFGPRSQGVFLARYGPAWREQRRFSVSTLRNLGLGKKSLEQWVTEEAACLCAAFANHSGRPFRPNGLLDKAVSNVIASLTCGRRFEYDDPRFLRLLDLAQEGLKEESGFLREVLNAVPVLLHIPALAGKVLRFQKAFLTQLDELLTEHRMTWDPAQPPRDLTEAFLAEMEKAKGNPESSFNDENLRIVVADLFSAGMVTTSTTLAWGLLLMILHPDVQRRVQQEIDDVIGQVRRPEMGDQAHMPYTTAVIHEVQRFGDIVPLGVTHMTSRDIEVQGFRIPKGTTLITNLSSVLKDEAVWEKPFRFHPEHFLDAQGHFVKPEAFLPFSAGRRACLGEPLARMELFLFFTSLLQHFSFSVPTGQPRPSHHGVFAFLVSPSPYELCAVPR

| SMILES | Ki (5-HT2B) | P450 in vitro clearance CLint, CYP2A6 (CYP2A6) | P450 in vitro clearance CLint, CYP2D6 (CYP2D6) | P450 in vitro clearance CLint, CYP2E1 (CYP2E1) |
| --- | --- | --- | --- | --- |
| NC(=O)c1ccc(OCCNC[C@H](O)COc2ccc3c(c2)OC[C@@H](COCC2CC2)O3)cc1 [NDD-713] | > 10 µM | 0.02 μl/min/pmol P450 | – | – |
| O=C1NCc2cc(OCCNC[C@H](O)COc3ccc4c(c3)OC[C@@H](COCC3CC3)O4)ccc21 [NDD-825] | – | – | 0.02 μl/min/pmol P450 | 0.02 μl/min/pmol P450 |
